Test results as given in patent US9101635B2 (priority 2009, dated 2015).
pIC50: −log10 of the molar value. Like-named read-outs stand apart in the source and are kept apart here.

Assays:
[1] = system: HIV/VSV-G pseudotype virus; experiment: microbe, parasite or virus in culture; assay type: cell-based, vesicular stomatitis virus; settings: for inhibition at 25 µM: Human immunodeficiency virus 1, HEK-293T, read-out: Inhibition of pseudotype virus at 25 μM in 293T cells (%) HIV/VSV-GP
in vitro [2] = settings: human
[3] = system: recombinant Zaire EBOV expressing green fluorescent protein (GFP-ZEBOV); experiment: microbe, parasite or virus in culture; assay type: cell-based, EBOV (Zaire subtype, 1995 strain)
in vitro [4] = settings: African green monkey
[5] = system: HIV/EBOV-GP pseudotype virus; experiment: microbe, parasite or virus in culture; assay type: cell-based, EBOV Zaire strain; settings: for inhibition at 25 µM: read-out: Inhibition of pseudotype virus at 25 μM in 293T cells (%) HIV/EBOV-GP
Vero E6 cells = settings: African green monkey
[6] = system: HIV/EBOV-GP pseudotype virus; experiment: microbe, parasite or virus in culture; assay type: cell-based, EBOV Zaire strain; settings: Human immunodeficiency virus 1, HEK-293T
EboZ replication = settings: read-out: IC50, EboZ replication in vitro; cited from earlier work
[7] = system: HIV/EBOV-GP pseudotype virus; assay type: cell-based, EBOV Zaire strain
[8] = system: HIV/VSV-G pseudotype virus; assay type: cell-based, vesicular stomatitis virus
[9] = system: HIV/MARV-GP pseudotype virus; experiment: microbe, parasite or virus in culture; assay type: cell-based, MARV (Lake Victoria strain)
[10] = system: HIV/HA(H5) pseudotype virus; experiment: microbe, parasite or virus in culture; assay type: cell-based, influenza virus subtype H5
[11] = system: HIV/LASV-GP pseudotype virus; experiment: microbe, parasite or virus in culture; assay type: cell-based, Lassa virus (LASV)
[12] = system: HIV/EBOV-GP pseudotype virus; assay type: cell-based, EBOV Zaire strain; remark: listed apart in the source
VSV-G = VSV-G (Vesicular stomatitis Indiana virus, UniProt P03522); assay type: cell-based; settings: pH 5
Sequence of VSV-G (P03522 17-511 limits assumed): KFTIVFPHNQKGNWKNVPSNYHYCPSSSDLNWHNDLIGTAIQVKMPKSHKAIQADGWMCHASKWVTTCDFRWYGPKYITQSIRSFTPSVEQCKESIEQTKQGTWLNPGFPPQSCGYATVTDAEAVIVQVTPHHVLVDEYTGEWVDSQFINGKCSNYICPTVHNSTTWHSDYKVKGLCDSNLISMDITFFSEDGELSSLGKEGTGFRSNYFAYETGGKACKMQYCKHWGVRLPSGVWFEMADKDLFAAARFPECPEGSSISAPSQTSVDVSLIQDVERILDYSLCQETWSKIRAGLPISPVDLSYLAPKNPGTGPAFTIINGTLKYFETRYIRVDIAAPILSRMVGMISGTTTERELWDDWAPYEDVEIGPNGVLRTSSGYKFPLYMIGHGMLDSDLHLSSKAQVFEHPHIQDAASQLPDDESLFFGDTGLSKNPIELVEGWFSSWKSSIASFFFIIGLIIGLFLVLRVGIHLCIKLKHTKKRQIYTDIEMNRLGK

EBOV Δmucin GP = assay type: cell-based; settings: pH 5
[13] = Zaire ebolavirus, Vero C1008, 48 h, read-out: GFP-ZEBOV IC50 (μM)
[14] = Zaire ebolavirus, Vero C1008, 48 h, read-out: GFP-ZEBOV IC90 (μM)
[15] = Human immunodeficiency virus 1, HEK-293T, read-out: HIV/EBOV-Gp IC90 (μM)
[16] = Human immunodeficiency virus 1, HEK-293T, read-out: IC90 (μM) against HIV/EBOV-GP
[17] = Human immunodeficiency virus 1, HEK-293T
[18] = read-out: inhibition of HIV/EBOV-GP infection, Assay 3: compounds pre-incubated with the virus for 1 hour at 37° C.
[19] = read-out: inhibition of infection, Assay 4: compounds pre-incubated with 293T cells at 4° C. before virus
[20] = Zaire ebolavirus, Vero C1008, read-out: Infectious EBOV IC50 (μM)
[21] = Human immunodeficiency virus 1, read-out: HIV/MARV-GP IC90 (μM)
[22] = Human immunodeficiency virus 1, read-out: HIV/HA (H5) IC90 (μM)
[23] = Human immunodeficiency virus 1, HEK-293T, read-out: HIV/EBOV-GP IC90 (μM)
[24] = Human immunodeficiency virus 1, read-out: HIV/LASV-GP IC90 (μM)

CCCN(C)c1c([N+](=O)[O-])cc([N+](=O)[O-])c2cccnc12 [A, 5,7-dinitro-8-[methyl(propyl)amino]quinoline]
inhibition at 25 µM [1]: 25%
CC50 (in vitro [2]): 30 µM
IC50 [3, 13]: 7.5 µM
IC90 [3, 14]: 10 µM
CC50 (in vitro [4]; GFP-ZEBOV CC50 (μM)): 15 µM
IC90 [5, 15]: 18.4 µM
IC90 [5, 16]: 18.4 µM
inhibition at 25 µM [5, 17]: 98%

COc1cccc(C(CC(=O)c2ccc(Cl)cc2)C(C#N)C#N)c1 (centres unmarked) [B]
inhibition at 25 µM [1]: 10%
CC50 (in vitro [2]): 25 µM
IC50 [3, 13]: 10 µM
IC90 [3, 14]: 20 µM
CC50 (Vero E6 cells): 51.5 µM
inhibition at 10 µM [6, 18]: > 75%
CC50 (in vitro [4]; GFP-ZEBOV CC50 (μM)): > 50 µM
IC90 [5, 15]: 7.6 µM
IC90 [5, 16]: 7.6 µM
inhibition at 25 µM [5, 17]: 100%

Nc1nccc2c1ncn2[C@@H]1C[C@H](CO)[C@@H](O)[C@H]1O [C-c3Ado, carbocyclic adenosine analog 3-deazaadenosinc]
pIC50 (EboZ replication): 4.52

CCCNC(=O)[C@H]1O[C@@H]1C(=O)N[C@H](C(=O)N1CCC[C@H]1C(=O)O)[C@@H](C)CC [CA-074]
inhibition of HIV/EBOV-GP infection [7]: strongly inhibited
inhibition of HIV/VSV-G infectivity [8]: not

CC[C@@]1(O)C(=O)OCc2c1cc1n(c2=O)Cc2cc3ccccc3nc2-1 [C]
inhibition at 25 µM [1]: 0%
CC50 (in vitro [2]): 20 µM
IC50 [3, 13]: 10 µM
IC90 [3, 14]: 23.5 µM
inhibition at 10 µM [6, 18]: > 75%
CC50 (in vitro [4]; GFP-ZEBOV CC50 (μM)): 29.5 µM
IC90 [5, 15]: 0.8 µM
IC90 [5, 16]: 0.8 µM
inhibition at 25 µM [5, 17]: 98%

CC1=CC(c2ccccc2)=Nc2cc3ccccc3cc2N1 [Compound G1]
pIC50 [5, 17]: 4.05

Cc1cc2c(cc1C)N=C(C(F)(F)F)CC(c1ccc(Cl)cc1)=N2 [Compound G2]
pIC50 [5, 17]: 4.14

FC(F)(F)C(F)(F)C1=Nc2ccccc2N=C(c2ccccc2)C1 [Compound G3]
pIC50 [5, 17]: 4.15

FC(F)(F)C(F)(F)C1=Nc2cc(Cl)c(Cl)cc2N=C(c2ccccc2)C1 [Compound G4]
pIC50 [5, 17]: 5.43

Oc1ccccc1C1=Nc2ccccc2N=C(C(F)(F)F)C1 [Compound G5]
pIC50 [5, 17]: 4.15

Cc1ccc(C2=Nc3ccccc3N=C(C(F)(F)F)C2)cc1 [Compound G6]
pIC50 [5, 17]: 4.12

COc1ccc(O)c(C2=Nc3ccccc3N=C(C(F)(F)F)C2)c1 [Compound G7]
pIC50 [5, 17]: 4.07

Oc1ccccc1C1=Nc2ccccc2N=C(c2cccs2)C1 [Compound G8]
pIC50 [5, 17]: < 4.00

Oc1ccc(Cl)cc1C1=Nc2ccccc2N=C(c2ccco2)C1 [Compound G9]
pIC50 [5, 17]: < 4.00

COc1ccc(O)c(C2=Nc3ccccc3N=C(c3cccs3)C2)c1 [Compound G10]
pIC50 [5, 17]: < 4.00

Oc1ccccc1C1=Nc2ccccc2N=C(c2ccco2)C1 [Compound G11]
pIC50 [5, 17]: < 4.00

O=[N+]([O-])c1cccc(C2=Nc3ccccc3N=C(c3ccccc3O)C2)c1 [Compound G12]
pIC50 [5, 17]: < 4.00

FC(F)C(F)(F)C1=Nc2ccccc2N=C(c2ccccc2)C1 [Compound G]
Inhibition of pseudotype virus at 25 μM in 293T cells (%) HIV/VSV-GP ([1]; 25 μM): 20%
GFP-ZEBOV percentage in parentheses beside IC90 >25 [3]: >25 (70%)
pIC50 ([3]; read-out: GFP-ZEBOV IC50): 5.00
IC90 ([3]; read-out: GFP-ZEBOV IC90): > 25 µM
pIC50 ([3]; read-out: Infectious EBOV IC50): 5.00
IC90 ([9]; read-out: HIV/MARV-GP IC90): 10 µM
IC90 ([10]; read-out: HIV/HA (H5) IC90): > 50 µM
Inhibition of pseudotype virus at 25 μM in 293T cells (%) HIV/EBOV-GP ([5]; 25 μM): 96%
IC90 ([5]; read-out: HIV/EBOV-GP IC90): 12.1 µM
IC90 ([5]; read-out: HIV/EBOV-Gp IC90): 12.1 µM
pIC50 ([5]; read-out: IC50): 4.92
IC90 ([5]; read-out: IC90 (μM) against HIV/EBOV-GP): 20.1 µM
IC90 ([11]; read-out: HIV/LASV-GP IC90): > 50 µM
CC50 (293T cells): 75 µM
inhibition, added at time 0 at 0° C. ("binding") [12]: > 75%

O=c1c2ccccc2nc(/C=C/c2ccc([N+](=O)[O-])o2)n1-c1cccc(C(F)(F)F)c1 [D]
inhibition at 25 µM [1]: 15%
CC50 (in vitro [2]): 30 µM
GFP-ZEBOV percentage in parentheses beside IC90 >25 [3]: >25 (85%)
IC50 [3, 13]: 15.5 µM
IC90 [3, 14]: > 25 µM
CC50 (Vero E6 cells): 62.5 µM
inhibition at 10 µM [6, 19]: > 75%
CC50 (in vitro [4]; GFP-ZEBOV CC50 (μM)): > 50 µM
IC90 [5, 15]: 1.1 µM
IC90 [5, 16]: 1.1 µM
inhibition at 25 µM [5, 17]: 100%

O=C(Nc1ccc(Cl)c(Cl)c1)c1ccc([N+](=O)[O-])o1 [E]
inhibition at 25 µM [1]: 25%
CC50 (in vitro [2]): 54 µM
IC50 [3, 13]: 14.5 µM
IC90 [3, 14]: 20 µM
CC50 (in vitro [4]; GFP-ZEBOV CC50 (μM)): 40 µM
IC90 [5, 15]: 20.8 µM
IC90 [5, 16]: 20.8 µM
inhibition at 25 µM [5, 17]: 98%

N=c1c2c(-c3ccccc3)c(-c3ccccc3)n(Cc3ccco3)c2ncn1CCCn1ccnc1 [F]
inhibition at 25 µM [1]: 20%
CC50 (in vitro [2]): 25 µM
GFP-ZEBOV percentage in parentheses beside IC90 >25 [3]: >25 (78%)
IC50 [3, 13]: 15 µM
IC90 [3, 14]: > 25 µM
inhibition at 10 µM [6, 19]: > 75%
CC50 (in vitro [4]; GFP-ZEBOV CC50 (μM)): 48.5 µM
IC90 [5, 15]: 10.9 µM
IC90 [5, 16]: 10.9 µM
inhibition at 25 µM [5, 17]: 98%

Cc1ccc(N(c2ccc(C)cc2)c2cccnc2)cc1 [H]
inhibition at 25 µM [1]: 30%
CC50 (in vitro [2]): > 50 µM
GFP-ZEBOV percentage in parentheses beside IC90 >25 [3]: >25 (59%)
IC50 [3, 13]: 20 µM
IC90 [3, 14]: > 25 µM
CC50 (in vitro [4]; GFP-ZEBOV CC50 (μM)): 22.6 µM
IC90 [5, 15]: 23.5 µM
IC90 [5, 16]: 23.5 µM
inhibition at 25 µM [5, 17]: 100%

COc1ccc(OC)c(NC(=O)CC(c2ccc(OC)cc2OC)S(=O)(=O)c2ccccc2)c1 (centres unmarked) [I]
CC50 (in vitro [2]): 32 µM
IC50 [3, 20]: 4.6 µM
IC90 [9, 21]: 2.8 µM
CC50 (in vitro [4]; Infectious EBOV CC50 (μM)): 40 µM
IC90 [10, 22]: > 50 µM
IC90 [5, 23]: 2.7 µM
IC90 [11, 24]: > 50 µM
activity when added after virus infection (+1 h) ("fusion") [12]: active

CCOc1ccc(NC(=O)CSc2nnc(COc3cccc(N(C)C)c3)n2-c2ccccc2)cc1 [K]
CC50 (in vitro [2]): 98 µM
IC50 [3, 20]: 2.5 µM
IC90 [9, 21]: 11 µM
CC50 (in vitro [4]; Infectious EBOV CC50 (μM)): 50 µM
IC90 [10, 22]: > 50 µM
selectivity index, third value column of Table 7 (head only in drawing) [5]: 39
IC90 [5, 23]: 2 µM
pIC50 ([5]; Human immunodeficiency virus 1, HEK-293T, read-out: antiviral potency, first value column of Table 7 (head only in drawing)): 5.60
IC90 [11, 24]: > 50 µM
cytotoxicity, second value column of Table 7 (head only in drawing) (293T cells; human): 98
activity when added after virus infection (+1 h) ("fusion") [12]: active

Bafilomycin
inhibition of cell-cell fusion, VSV-G expressing cells (VSV-G): completely inhibited
inhibition of cell-cell fusion, EBOV expressing cells (EBOV Δmucin GP): completely inhibited
